Drawing on patent publication US20080255080A1, “Hydroquinone Ansamycin Formulations” (priority 2007, published 2008), this text covers solubility for 1 compound.

The term solubility denotes how much of the substance goes into solution per volume. The low end stands for a poorly soluble substance, the high end for a readily soluble substance.

The series in a line: Solubility in aqueous solutions. In kind it is physicochemical. How it is done:
The hydroquinones provided herein may be converted into salt form by reaction with an acid, or by reaction with an acid halide of an amino acid. In the examples, the C-17 alkyl amino group is protonated to generate a C-17 ammonium salt hydroquinone geldanamycin analog. In addition, the C-17 ammonium salt hydroquinones formed have the added benefit of being highly soluble in aqueous solutions (solubility >200 mg/mL), unlike 17-AAG (solubility <100 μg/mL).

Each structure is given as a SMILES string.

`C=CCNC1=C2C[C@@H](C)C[C@H](OC)[C@H](O)[C@@H](C)/C=C(\C)[C@H](OC(N)=O)[C@@H](OC)/C=C\C=C(/C)C(=O)NC(=CC1=O)C2=O` [Compound 17-AAG] gave a solubility of less than 100 µg/mL.
